Results as given in patent publication EP0830813B1, “Fungicidal compositions” (Aventis CropScience UK Limited, priority 1996, dated 1998).

Tests used:
Format in all cases: in vivo
[1] = tested on: Leptosphaeria nodorum and Septoria tritici mixed infection; test: Control of Leptosphaeria nodorum and Septoria tritici mixed infection on sprayed winter wheat, assessed 23 days after application; conditions: spray, average of 4 replicates
Protocol: (§1) Winter wheat was sprayed with cyprodinil, PBO and mixtures of the two. Thirty three days after application the winter wheat was assessed for levels of Leptosphaeria nodorum compared with untreated cereal, whereby the level of control could be calculated. Results (average of 4 replicates) are shown below. In a similar experiment, levels of Leptosphaeria nodorum and Septoria tritici mixed infection were assessed 23 days after application. Results (average of 4 replicates) are shown below.

Erysiphe graminis = test: Control of Erysiphe graminis infection on sprayed winter wheat, assessed after 30 days; conditions: spray, average of 4 replicates
Protocol: as §1, with “experiment” for “experiment,”, “Erysiphe graminis” for “Leptosphaeria nodorum and Septoria tritici mixed”, “determined” for “assessed 23 days”, “30 days.” for “application.”

Elysiphe graminis = test: Control of Elysiphe graminis infection on sprayed winter wheat, assessed after 14 days; conditions: spray, average of 3 replicates
Protocol: Winter wheat was sprayed with cyprodinil, PBO and mixtures of the two. Thirty three days after application the winter wheat was assessed for levels of Leptosphaeria nodorum compared with untreated cereal, whereby the level of control could be calculated. Results (average of 4 replicates) are shown below. In a similar experiment levels of […] graminis infection were determined after 14 days. Results (average of 3 replicates) are shown below.

Leptosphaeria nodorum = test: Control of Leptosphaeria nodorum on sprayed winter wheat, assessed 33 days after application; conditions: spray, vs untreated, average of 4 replicates
Protocol: Winter wheat was sprayed with cyprodinil, PBO and mixtures of the two. Thirty three days after application the winter wheat was assessed for levels of Leptosphaeria nodorum compared with untreated cereal, whereby the level of control could be calculated. Results (average of 4 replicates) are shown below.

SMILES | % control ([1]; 300 g ai / ha) | % control (Erysiphe graminis; 300 g ai / ha) | % control (Elysiphe graminis; 300 g ai/ha) | % control (Leptosphaeria nodorum; 300 g ai / ha) | % control ([1]; 600 g ai / ha) | % control (Erysiphe graminis; 600 g ai / ha) | % control (Elysiphe graminis; 150 g ai/ha) | % control (Elysiphe graminis; 600 g ai/ha) | % control (Leptosphaeria nodorum; 600 g ai / ha)
CCCCOCCOCCOCc1cc2c(cc1CCC)OCO2 [PBO, piperonyl butoxide] | 0.0% | 0.0% | 0.0% | 0.0% |  |  |  |  | 
Cc1cc(C2CC2)nc(Nc2ccccc2)n1 [cyprodinil] |  |  | 67% |  | 0.0% | 34.4% | 35% | 98% | 23.1%
